Legend:
HCV NS3-NS4A protease = molecular target: T1, HCV NS3-NS4A protease (Hepatitis C virus genotype 1b, UniProt P26663); test: HCV Protease Assay (SensoLyte 620 HCV Protease Assay kit); type: biochemical; details: 1.2 nM HCV NS3-NS4A protease, 60 min at room temperature, 5% DMSO
T1 construct: made in house
Experimental: General procedure: Measurement of the inhibitory effect of compounds on HCV protease activity was performed with the SensoLyte™ 620 HCV Protease Assay kit from AnaSpec, Inc. (San Jose, Calif.) under conditions described by the supplier using 1.2 nM HCV NS3-NS4A protease, which was obtained according to Taremi et al. (Protein Science, 1998, 7, 2143-2149). The compounds were tested at a variety of concentrations in assay buffer containing a final DMSO concentration of 5%. Reactions were allowed to proceed for 60 min at room temperature and fluorescence measurements were recorded with a Tecan Infinity Spectrofluorimeter. The IC50 values were determined from the percent inhibition versus concentration data using a sigmoidal non-linear regression analysis based on four parameters with Tecan Magellan software.

[1] = tested on: Huh-7 cells containing HCV Con1 subgenomic replicon (GS4.1 cells); test: HCV Replicon Assay (NS4A ELISA); type: cell-based; details: Hepatitis C virus, Huh-7, 72 hr, NS4A protein by ELISA
Experimental: General procedure: Huh-7 cells containing HCV Con1 subgenomic replicon (GS4.1 cells) were grown in Dulbecco's Modified Eagle Medium (DMEM) supplemented with 10% fetal bovine serum (FBS), 2 mM L-glutamine, 110 mg/L sodium pyruvate, 1× non-essential amino acids, 100 U/mL penicillin-streptomycin, and 0.5 mg/mL G418 (Invitrogen). For dose-response testing, the cells were seeded in 96-well plates at 7.5×10^3 cells/well in a volume of 50 μL, and incubated at 37° C./5% CO2. Three hours after plating, 50 μL of ten 2-fold serial dilutions of compounds (highest concentration, 75 μM) were added, and cell cultures were incubated at 37° C./5% CO2 in the presence of 0.5% DMSO. Alternatively, compounds were tested at a single concentration of 15 μM. In all cases, Huh-7 cells lacking the HCV replicon served as negative control. The cells were incubated in the presence of compounds for 72 hr after which they were monitored for expression of the NS4A protein by enzyme-linked immunosorbent assay (ELISA). For this, the plates were then fixed for 1 min with acetone/methanol (1:1, v/v), washed twice with phosphate-buffered saline (PBS), 0.1% Tween 20, blocked for 1 hr at room temperature with TNE buffer containing 10% FBS and then incubated for 2 hr at 37° C. with the anti-NS4A mouse monoclonal antibody A-236 (ViroGen) diluted in the same buffer. After washing three times with PBS, 0.1% Tween 20, the cells were incubated 1 hr at 37° C. with anti-mouse immunoglobulin G-peroxidase conjugate in TNE, 10% FBS. After washing as described above, the reaction was developed with O-phenylenediamine (Zymed). The reaction was stopped after 30 min with 2 NH2SO4, and absorbance was read at 492 nm using Sunrise Tecan spectrophotometer. EC50 values were determined from the % inhibition versus concentration data using a sigmoidal non-linear regression analysis based on four parameters with Tecan Magellan software. When screening at a single concentration, the results were expressed as % inhibition at 15 μM.

[2] = Cytotoxicity evaluation (Cell Titer 96 AQueous One Solution Cell Proliferation Assay); type: cell-based; details: human; GS4.1 cells, cellular viability
Experimental: For cytotoxicity evaluation, GS4.1 cells were treated with compounds as described above and cellular viability was monitored using the Cell Titer 96 AQueous One Solution Cell Proliferation Assay (Promega). CC50 values were determined from the % cytotoxicity versus concentration data with Tecan Magellan software as described above.

T1 sequence (P26663 1027-1208): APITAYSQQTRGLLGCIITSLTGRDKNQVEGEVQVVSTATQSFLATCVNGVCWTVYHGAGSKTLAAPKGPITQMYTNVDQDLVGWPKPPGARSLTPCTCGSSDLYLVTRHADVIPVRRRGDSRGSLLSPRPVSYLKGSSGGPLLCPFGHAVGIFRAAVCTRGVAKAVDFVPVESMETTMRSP

SMILES | IC50 (HCV NS3-NS4A protease) [µM] | EC50 [1] [µM] | CC50 [2] [µM]
COc1ccc2c(O[C@H]3C[C@H]4C(=O)N(C)CCCC/C=C\[C@@H]5C[C@@]5(C(=O)NS(=O)(=O)C5CC5)NC(=O)N4C3)cc(-n3ccc(C(F)(F)F)n3)nc2c1C [Compound 91g, (Z)-(4R,6S,15S,17S)-[17-[7-methoxy-8-methyl-2-(3-trifluoromethyl-1H-pyrazol-1-yl)quinolin-4-yloxy]-13-N-methyl-2,14-dioxo-1,3,13-triazatricyclo[13.3.0.0]octadec-7-ene-4-yl]carbonyl(cyclopropyl)sulfonamide] | < 1 | < 1 | > 75
COc1ccc2c(O[C@H]3C[C@H]4C(=O)N(C)CCCC/C=C\[C@@H]5C[C@@]5(C(=O)NS(=O)(=O)C5(C)CC5)NC(=O)N4C3)nc(-c3nc(C(C)C)cs3)nc2c1Cl [Compound 110d, (Z)-(4R,6S,15S,17S)-[17-[8-chloro-7-methoxy-2-(4-isopropylthiazol-2-yl)quinazolin-4-yloxy]-13-N-methyl-2,14-dioxo-1,3,13-triazatricyclo[13.3.0.0]octadec-7-ene-4-yl]carbonyl(1-methylcyclopropyl)sulfonamide] | < 1 | < 1 | > 75
COc1ccc2c(O[C@H]3C[C@H]4C(=O)N(C)CCCC/C=C\[C@@H]5C[C@@]5(C(=O)NS(=O)(=O)C5(C)CC5)NC(=O)N4C3)cc(-c3nc(C(C)C)cs3)nc2c1Br [Compound 56h, (Z)-(4R,6S,15S,17S)-[17-[8-bromo-7-methoxy-2-(4-isopropylthiazol-2-yl)quinolin-4-yloxy]-13-N-methyl-2,14-dioxo-1,3,13-triazatricyclo[13.3.0.0]octadec-7-en-4-yl]carbonyl(1-methyl-cyclopropyl)sulfonamide] | < 1 | < 1 | > 75
COc1ccc2c(O[C@H]3C[C@H]4C(=O)N(C)CCCC/C=C\[C@@H]5C[C@@]5(C(=O)NS(=O)(=O)C5CC5)NC(=O)N4C3)cc(-c3csc(C(F)(F)F)n3)nc2c1Cl [Compound O1, (Z)-(4R,6S,15S,17S)-[17-[8-chloro-7-methoxy-2-(2-trifluoromethylthiazol-4-yl)quinolin-4-yloxy]-13-N-methyl-2,14-dioxo-1,3,13-triazatricyclo-[13.3.0.0]octadec-7-en-4-yl]carbonyl-(cyclopropyl)sulfonamide] | < 1 | < 1 | 10 to 75
COc1ccc2c(O[C@H]3C[C@H]4C(=O)N(C)CCCC/C=C\[C@@H]5C[C@@]5(C(=O)NS(=O)(=O)C5CC5)NC(=O)N4C3)cc(-c3nc(C4CC4)cs3)nc2c1Cl [AC1, (Z)-(4R,6S,15S,17S)-[17-[8-chloro-7-methoxy-2-(4-cyclopropylthiazol-2-yl)quinolin-4-yloxy]-13-N-methyl-2,14-dioxo-1,3,13-triazatricyclo-[13.3.0.0]octadec-7-en-4-yl]carbonyl-(cyclopropyl)sulfonamide] | < 1 | < 1 | 10 to 75
COc1ccc2c(O[C@H]3C[C@H]4C(=O)N(C)CCCC/C=C\[C@@H]5C[C@@]5(C(=O)NS(=O)(=O)C5(C)CC5)NC(=O)N4C3)cc(-c3cc(C(C)C)on3)nc2c1Cl [Compound 96d, (Z)-(4R,6S,15S,17S)-[17-[8-chloro-7-methoxy-2-(5-isopropylisoxazol-3-yl)quinolin-4-yloxy]-13-N-methyl-2,14-dioxo-1,3,13-triazatricyclo[13.3.0.0]octadec-7-ene-4-yl]carbonyl(1-methylcyclopropyl)sulfonamide] | < 1 | 1 to 10 | > 75
COc1ccc2c(O[C@H]3C[C@H]4C(=O)N(C)CCCC/C=C\[C@@H]5C[C@@]5(C(=O)NS(=O)(=O)C5(C)CC5)NC(=O)N4C3)cc(-c3csc(C(C)C)n3)nc2c1Cl [Compound 101d, (Z)-(4R,6S,15S,17S)-[17-[8-chloro-7-methoxy-2-(2-isopropythiazol-4-yl)quinolin-4-yloxy]-13-N-methyl-2,14-dioxo-1,3,13-triazatricyclo[13.3.0.0]octadec-7-ene-4-yl]carbonyl(1-methylcyclopropyl)sulfonamide] | < 1 | < 1 | > 75

Source: patent US8003659B2, “Macrocyclic serine protease inhibitors” (Indenix Pharmaceuticals, Inc., priority 2008, dated 2011)
